The results in this text go back to patent US20230250066A1, “HERBICIDAL CINNOLINE DERIVATIVES” (SYNGENTA CROP PROTECTION AG, priority 2020, published 2023).

Common to all, as to type: in vivo
In assay [1] the test system is Zea mays (ZEAMX). Nature of the assay: Pre-emergence herbicidal test. The conditions noted are these: 1000 g/ha, evaluated after 13 days.
Assay [2] concerns Ipomoea hederacea (IPOHE). Nature of the assay: Pre-emergence herbicidal test. The conditions noted are these: 1000 g/ha, evaluated after 13 days.
Assay [3] deals with Zea mays (ZEAMX). Briefly: Post-emergence herbicidal test. The conditions noted are these: 1000 g/ha unless otherwise stated, evaluated after 13 days. The procedure, abridged: (§1)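 Scores on a five-point scale: 5=81-100%, 4=61-80%, 3=41-60%, 2=21-40%, 1=10-20%, 0=0% damage. These are assessed 13 days after spraying at 1000 g/ha unless stated.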
In assay [4] the test system is Echinochloa crus-galli (ECHCG). Briefly: Post-emergence herbicidal test. The conditions noted are these: 1000 g/ha unless otherwise stated, evaluated after 13 days. An outline of the steps: as §1
The subject of assay [5] is Setaria faberi (SETFA). Nature of the assay: Post-emergence herbicidal test. As to conditions: 1000 g/ha unless otherwise stated, evaluated after 13 days. An outline of the steps: as §1
Assay [6] relates to Ipomoea hederacea (IPOHE). Briefly: Post-emergence herbicidal test. The conditions noted are these: 1000 g/ha unless otherwise stated, evaluated after 13 days. The procedure, abridged: as §1
The subject of assay [7] is Abutilon theophrasti (ABUTH). Briefly: Post-emergence herbicidal test. As to conditions: 1000 g/ha unless otherwise stated, evaluated after 13 days. The procedure, abridged: as §1
For assay [8], the system named is Amaranthus retoflexus (AMARE). Nature of the assay: Post-emergence herbicidal test. The conditions noted are these: 1000 g/ha unless otherwise stated, evaluated after 13 days. The procedure, abridged: as §1
For assay [9], the system named is Echinochloa crus-galli (ECHCG). Briefly: Pre-emergence herbicidal test. As to conditions: 1000 g/ha, evaluated after 13 days.
For assay [10], the system named is Abutilon theophrasti (ABUTH). Nature of the assay: Pre-emergence herbicidal test. As to conditions: 1000 g/ha, evaluated after 13 days.
For assay [11], the system named is Setaria faberi (SETFA). Briefly: Pre-emergence herbicidal test. The conditions noted are these: 1000 g/ha, evaluated after 13 days.
For assay [12], the system named is Amaranthus retoflexus (AMARE). Nature of the assay: Pre-emergence herbicidal test. As to conditions: 1000 g/ha, evaluated after 13 days.

As to `CCOC(=O)c1nn(-c2ccc(OC(F)(F)F)cc2)c2cc(C#N)cc(SC)c2c1=O` [Compound P55, ethyl 7-cyano-5-methylsulfanyl-4-oxo-1-[4-(trifluoromethoxy)phenyl]cinnoline-3-carboxylate], the “percentage damage caused to the plant, five-point scale, ZEAMX” value in the assay with Zea mays (ZEAMX) [1] is 0 (0=0%). For the same compound, the “percentage damage caused to the plant, five-point scale, IPOHE” value in [2] is given as 0 (0=0%). In addition, the “percentage damage caused to the plant, ZEAMX (five-point scale)” value with Zea mays (ZEAMX) [3] is 0 (0=0%). In addition, the “percentage damage caused to the plant, ECHCG (five-point scale)” value in assay [4] is 0 (0=0%). In the assay with Setaria faberi (SETFA) [5], the “percentage damage caused to the plant, SETFA (five-point scale)” value is 0 (0=0%). The “percentage damage caused to the plant, IPOHE (five-point scale)” value in assay [6] is reported as 0 (0=0%). Further, the “percentage damage caused to the plant, ABUTH (five-point scale)” value in assay [7] was 0 (0=0%). In assay [8], the “percentage damage caused to the plant, AMARE (five-point scale)” value is 0 (0=0%). Also, in assay [9], the “percentage damage caused to the plant, five-point scale, ECHCG” value is listed as 0 (0=0%). The “percentage damage caused to the plant, five-point scale, ABUTH” value in [10] was 1 (1=10-20%). In the assay with Setaria faberi (SETFA) [11], the “percentage damage caused to the plant, five-point scale, SETFA” value is recorded as 0 (0=0%). The “percentage damage caused to the plant, five-point scale, AMARE” value in assay [12] was 0 (0=0%).
Consider `C#CCCCOC(=O)c1nn(-c2ccc(OC(F)(F)F)cc2)c2cccc(S(C)(=O)=O)c2c1=O` [Compound P62, pent-4-ynyl 5-methylsulfonyl-4-oxo-1-[4-(trifluoromethoxy)phenyl]cinnoline-3-carboxylate], for which the “percentage damage caused to the plant, five-point scale, ZEAMX” value in the assay with Zea mays (ZEAMX) [1] is listed as 0 (0=0%). For the same compound, the “percentage damage caused to the plant, five-point scale, IPOHE” value in assay [2] is recorded as 0 (0=0%). Besides, the “percentage damage caused to the plant, ZEAMX (five-point scale)” value in the assay on Zea mays (ZEAMX) [3] is reported as 1 (1=10-20%). For the same compound, the “percentage damage caused to the plant, ECHCG (five-point scale)” value in [4] is recorded as 3 (3=41-60%). In addition, in the assay with Setaria faberi (SETFA) [5], the “percentage damage caused to the plant, SETFA (five-point scale)” value is 4 (4=61-80%). Also, in assay [6], the “percentage damage caused to the plant, IPOHE (five-point scale)” value is on record as 0 (0=0%). Further, the “percentage damage caused to the plant, ABUTH (five-point scale)” value in [7] was 0 (0=0%). The “percentage damage caused to the plant, AMARE (five-point scale)” value in assay [8] was 0 (0=0%). Moreover, the “percentage damage caused to the plant, five-point scale, ECHCG” value in assay [9] is on record as 4 (4=61-80%). The “percentage damage caused to the plant, five-point scale, ABUTH” value in [10] is 0 (0=0%). The “percentage damage caused to the plant, five-point scale, SETFA” value in the assay on Setaria faberi (SETFA) [11] is reported as 5 (5=81-100%). In addition, the “percentage damage caused to the plant, five-point scale, AMARE” value in [12] is 0 (0=0%).
As for `CC(C)(C)CCOC(=O)c1nn(-c2ccc(OC(F)(F)F)cc2)c2cccc(S(C)(=O)=O)c2c1=O` [Compound P86, 3,3-dimethylbutyl 5-methylsulfonyl-4-oxo-1-[4-(trifluoromethoxy)phenyl]cinnoline-3-carboxylate], the “percentage damage caused to the plant, five-point scale, ZEAMX” value in the assay on Zea mays (ZEAMX) [1] was 1 (1=10-20%). For the same compound, in assay [2], the “percentage damage caused to the plant, five-point scale, IPOHE” value is 0 (0=0%). In the assay on Zea mays (ZEAMX) [3], the “percentage damage caused to the plant, ZEAMX (five-point scale)” value is reported as 0 (0=0%). The “percentage damage caused to the plant, ECHCG (five-point scale)” value in assay [4] was 4 (4=61-80%). Further, the “percentage damage caused to the plant, SETFA (five-point scale)” value with Setaria faberi (SETFA) [5] is 4 (4=61-80%). The “percentage damage caused to the plant, IPOHE (five-point scale)” value in assay [6] was 0 (0=0%). In [7], the “percentage damage caused to the plant, ABUTH (five-point scale)” value was 0 (0=0%). Also, the “percentage damage caused to the plant, AMARE (five-point scale)” value in assay [8] is recorded as 0 (0=0%). Further, the “percentage damage caused to the plant, five-point scale, ECHCG” value in assay [9] is listed as 5 (5=81-100%). In addition, the “percentage damage caused to the plant, five-point scale, ABUTH” value in [10] is recorded as 1 (1=10-20%). Further, the “percentage damage caused to the plant, five-point scale, SETFA” value in the assay with Setaria faberi (SETFA) [11] was 4 (4=61-80%). Moreover, in assay [12], the “percentage damage caused to the plant, five-point scale, AMARE” value was 0 (0=0%).
